The values below come from patent US9618513B2, “Compositions and methods for detecting and treating colorectal cancer” (The Regents of the University of Michigan, priority 2014, dated 2017).

One assay has as its system DLD-1 colon cancer cells. Kind of assay: Colon cancer sphere assay, DLD-1 cells. It is filed as cell-based, human. The text has this:
(A), IL-22 is expressed in colon cancer tissues. IL-22 mRNA was detected by real-time PCR in colon cancer tissues and peripheral blood. *P<0.05 compared to blood, 20 colon cancer patients. (B-D), Endogenous IL-22 promotes colon carcinogenesis. Single cells (10^7) isolated from colon cancer tissue were mixed with anti-IL-22 antibody or control mAb, and then subcutaneously injected to NSG mice. Tumor growth (B), incidence (C), and animal survival (D) are shown. (P<0.05 for all, n=5 per group). (E-G) Recombinant IL-22 promotes colon carcinogenesis. DLD-1 colon cancer cells (10^5) were pre-incubated with IL-22 (20 ng/ml) for 1 hour, and then subcutaneously injected to NSG mice. Tumor growth (E), incidence (F), and animal survival (G) are shown. (P<0.05 for all, n=5 per group). (H, I) IL-22 enhances colon cancer sphere formation. DLD-1 colon cancer cells were pre-incubated for 24 hours with IL-22. […] ALDH activity was determined by FACS based on aldefluor fluorescence. […] Results are expressed as fold changes of ALDH expression. […] The mRNA of stem cell core gene was detected by real-time PCR (K) and proteins were detected by western blotting (L, M). […]
(A) IL-22 induces H3K79me2 in colon cancer cells. […] Total histone modifications were analyzed by western blot. […] Sphere numbers were recorded. […] DOT1L complex gene expression was quantified by real-time PCR. […] Sphere numbers were recorded. […]

The test system of assay [1] is cyclin-dependent kinase inhibitors, cyclins and CDK4 in DLD-1. The experiment in a line: Cell cycle gene expression by real-time PCR. The format is cell-based, human. From the text:
A. GSEA analysis identifies proliferation pathways have positive correlation with IL-22. B. Cell proliferation maker Ki67 was detected by FACS. C. H^3 Thymidine Incorporation was used to detect the function of IL-22 in cell proliferation. D. Cell number was counted after stimulated with IL-22. E. Cells isolated from colon cancer tissue (Tumor cells and Leukocytes) were stimulated with a-CD3 and […] for 3 days, and supernatant mixed with or without anti-IL-22 antibody was co-cultured with DLD1 cells for 24 h to test cell proliferation. F. Cell cyclin-dependent kinase and kinase inhibitors were analyzed by Real-Time PCR.
The identification of target genes for IL-22 is essential for the determination of the mechanism by which it promotes proliferation in colon cancer cells. As such, the relative mRNA levels in DLD-1 colon cancer cell line was examined by real time quantitative PCR. As expected, IL-22 reduced the expression of the cyclin-dependent kinase inhibitors: p16 (CDKN2A), p18 (CDKN2C), p19 (CDKN2D), p21 (CDKN1A), p27 (CDKN1B), p53 and p57 (CDKN1C).
The mRNAs were quantified by real-time RT-PCR. SYBR Green Master Mix was used to detect fluorescence. Relative expression was calculated according to the Ct value with normalization to GAPDH.
(In general: In qPCR the cycle at which signal appears reflects the starting amount.)

Regarding `CC(C)N(CCCNC(=O)Nc1ccc(C(C)(C)C)cc1)C[C@H]1O[C@@H](n2ccc3c(N)ncnc32)[C@H](O)[C@@H]1O` [EPZ004777], in the assay on DLD-1 colon cancer cells (DLD-1 cells, in the presence of IL-22, inhibitor 10 uM), the “sphere formation induced by IL-22” value was “suppressed”.

Turning to “IL-22: recombinant IL-22 (R&D systems), cytokine interleukin-22”, in assay [1] (DLD-1), the “mRNA levels of cyclin A1, D1, D3, E1, E2 and CDK4” value is given as “increased”. The “expression of cyclin-dependent kinase inhibitors p16, p18, p19, p21, p27, p53 and p57” value in assay [1] (DLD-1, mRNA) was “reduced”. The tumor sphere formation result in the assay on DLD-1 colon cancer cells (DLD-1 pre-incubated 24 hours with IL-22, 2,000 cells) is “promoted tumor sphere formation in a dose dependent manner”.
